These results are taken from PMC3390922 (The Journal of Neuroscience, 2010).

Values joined by “and” are separate entries in the source; they are usually repeats but may differ in a detail not shown here. Equal entries are not always repeated. Structures can show the parent of a compound that is named as a salt.

In one data set the target is D1/D5 dopamine receptors. Nature of the data set: Saturation binding of [3H]-SCH23390 to membranes. Set-up: species or system mouse. As to conditions: membranes from C57Bl/6 mice (data not shown).
Another data set concerns the target D2/D3 dopamine receptors. Nature of the data set: Saturation binding of [3H]-raclopride to membranes. Also noted: species or system mouse. As to conditions: membranes from C57Bl/6 mice (data not shown).
The target of data set [1] is α6* nAChRs (αCtxMII-sensitive) in α4KO/α6^L9′S mice (Mus musculus, UniProt Q9ERK7+Q9R0W9, L280S).
Chain of α6* nAChRs (αCtxMII-sensitive) in α4KO/α6^L9′S mice (Q9ERK7 26-501, stated change not applied): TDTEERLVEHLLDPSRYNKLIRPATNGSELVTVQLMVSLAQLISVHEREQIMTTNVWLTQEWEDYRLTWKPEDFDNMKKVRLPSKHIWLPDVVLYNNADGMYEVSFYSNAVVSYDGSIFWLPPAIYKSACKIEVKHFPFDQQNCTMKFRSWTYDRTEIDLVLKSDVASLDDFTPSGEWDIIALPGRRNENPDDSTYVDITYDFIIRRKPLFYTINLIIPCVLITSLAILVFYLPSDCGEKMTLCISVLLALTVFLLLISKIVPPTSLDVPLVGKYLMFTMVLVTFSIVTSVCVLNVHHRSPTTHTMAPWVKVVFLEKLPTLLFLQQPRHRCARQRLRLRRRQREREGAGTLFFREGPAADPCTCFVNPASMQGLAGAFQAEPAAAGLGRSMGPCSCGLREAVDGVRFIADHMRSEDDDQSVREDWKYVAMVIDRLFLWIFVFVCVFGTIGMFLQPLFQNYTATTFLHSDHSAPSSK
Chain of α6* nAChRs (αCtxMII-sensitive) in α4KO/α6^L9′S mice (Q8BMN3 31-464, further chain): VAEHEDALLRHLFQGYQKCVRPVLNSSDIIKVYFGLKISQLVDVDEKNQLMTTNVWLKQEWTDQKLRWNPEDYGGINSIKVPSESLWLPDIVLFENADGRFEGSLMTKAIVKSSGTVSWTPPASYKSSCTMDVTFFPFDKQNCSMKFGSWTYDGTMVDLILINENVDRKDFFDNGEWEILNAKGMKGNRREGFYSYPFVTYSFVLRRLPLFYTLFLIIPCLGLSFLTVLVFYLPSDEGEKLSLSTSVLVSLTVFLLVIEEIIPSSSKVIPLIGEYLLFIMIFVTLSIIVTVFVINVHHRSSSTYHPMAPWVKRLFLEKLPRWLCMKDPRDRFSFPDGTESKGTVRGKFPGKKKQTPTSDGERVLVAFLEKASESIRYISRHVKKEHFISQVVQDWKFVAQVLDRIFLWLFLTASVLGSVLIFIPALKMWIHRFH
Chain of α6* nAChRs (αCtxMII-sensitive) in α4KO/α6^L9′S mice (Q9R0W9 31-494 L280S): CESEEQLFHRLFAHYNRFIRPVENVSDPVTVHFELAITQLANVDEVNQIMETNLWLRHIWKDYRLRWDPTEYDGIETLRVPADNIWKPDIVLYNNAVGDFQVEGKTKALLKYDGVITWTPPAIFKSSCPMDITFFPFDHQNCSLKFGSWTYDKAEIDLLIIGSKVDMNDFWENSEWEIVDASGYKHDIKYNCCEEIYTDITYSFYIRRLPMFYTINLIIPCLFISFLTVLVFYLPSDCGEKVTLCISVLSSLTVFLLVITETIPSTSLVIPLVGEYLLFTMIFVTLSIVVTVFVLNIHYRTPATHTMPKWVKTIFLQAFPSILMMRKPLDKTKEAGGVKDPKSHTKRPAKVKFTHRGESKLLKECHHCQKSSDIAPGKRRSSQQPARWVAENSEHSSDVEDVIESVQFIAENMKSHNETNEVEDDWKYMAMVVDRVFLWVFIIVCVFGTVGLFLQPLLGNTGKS
Data set [2] relates to WT, α6^L9′S, α4KO, and α4KO/α6^L9′S mice. As to conditions: mouse, in vivo.
The next data set concerns the target (non-α6) α4β2* nAChRs (Mus musculus, UniProt O70174+Q9ERK7).
Data set [3] addresses α6* nAChRs (αCtxMII-sensitive, α6β2*) (Mus musculus, UniProt Q9ERK7+Q9R0W9).
The conditions of data set [4]: in vivo; cited from earlier work.
The test system of another data set is α6α4β2β3 nAChRs. As to conditions: cited from earlier work.
In data set [5] the target is α6* nAChRs (αCtxMII-sensitive) in α4KO mice (Mus musculus, UniProt Q9ERK7+Q9R0W9).
Chain of α6* nAChRs (αCtxMII-sensitive) in α4KO mice (Q9ERK7 26-501): as the sequence (Q9ERK7 26-501, stated change not applied) above
Chain of α6* nAChRs (αCtxMII-sensitive) in α4KO mice (Q8BMN3 31-464, further chain): as the sequence (Q8BMN3 31-464, further chain) above
Chain of α6* nAChRs (αCtxMII-sensitive) in α4KO mice (Q9R0W9 31-494): as the sequence (Q9R0W9 31-494 L280S) above, with S250L counted along it
In data set [6] the target is (non-α6) α4β2* nAChRs in α6^L9′S mice (Mus musculus, UniProt O70174+Q9ERK7).
Chain of (non-α6) α4β2* nAChRs in α6^L9′S mice (O70174 31-629): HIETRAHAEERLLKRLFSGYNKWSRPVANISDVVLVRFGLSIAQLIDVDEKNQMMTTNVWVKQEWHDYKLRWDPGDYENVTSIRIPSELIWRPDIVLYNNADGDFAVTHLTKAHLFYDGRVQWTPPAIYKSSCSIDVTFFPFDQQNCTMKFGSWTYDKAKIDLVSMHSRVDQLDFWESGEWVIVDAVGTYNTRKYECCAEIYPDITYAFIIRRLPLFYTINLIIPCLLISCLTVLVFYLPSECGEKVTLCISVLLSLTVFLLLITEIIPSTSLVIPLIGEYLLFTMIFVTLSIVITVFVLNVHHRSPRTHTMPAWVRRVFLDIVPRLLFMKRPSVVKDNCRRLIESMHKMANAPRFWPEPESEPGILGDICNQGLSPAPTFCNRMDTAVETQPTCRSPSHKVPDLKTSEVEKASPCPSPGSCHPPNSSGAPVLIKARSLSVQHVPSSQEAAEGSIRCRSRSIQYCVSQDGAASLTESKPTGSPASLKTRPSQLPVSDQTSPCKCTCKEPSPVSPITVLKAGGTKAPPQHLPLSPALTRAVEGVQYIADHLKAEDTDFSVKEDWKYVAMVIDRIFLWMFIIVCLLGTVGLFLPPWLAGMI
Chain of (non-α6) α4β2* nAChRs in α6^L9′S mice (Q9ERK7 26-501): as the sequence (Q9ERK7 26-501, stated change not applied) above
Data set [7] concerns DA release in striatal slices. Also noted: species or system mouse.

Chain of α6* nAChRs (αCtxMII-sensitive, α6β2*) (Q9R0W9 31-494): as the sequence (Q9R0W9 31-494 L280S) above, with S250L counted along it
Chain of α6* nAChRs (αCtxMII-sensitive, α6β2*) (Q9ERK7 26-501): as the sequence (Q9ERK7 26-501, stated change not applied) above
Chain of α6* nAChRs (αCtxMII-sensitive, α6β2*) (O70174 31-629, further chain): as the sequence (O70174 31-629) above
Chain of α6* nAChRs (αCtxMII-sensitive, α6β2*) (Q8BMN3 31-464, further chain): as the sequence (Q8BMN3 31-464, further chain) above
Chain of (non-α6) α4β2* nAChRs (O70174 31-629): as the sequence (O70174 31-629) above
Chain of (non-α6) α4β2* nAChRs (Q9ERK7 26-501): as the sequence (Q9ERK7 26-501, stated change not applied) above

The Kd is a measure of binding affinity in units of concentration. Lower therefore signals higher affinity. On D1/D5 dopamine receptors, `CN1CCc2cc(Cl)c(O)cc2[C@@H](c2ccccc2)C1` [[^3H]-SCH23390] registered a Kd of roughly 0.1 nM.

Regarding `CCN1CCC[C@H]1CNC(=O)c1c(O)c(Cl)cc(Cl)c1OC` [[^3H]-raclopride], the Kd on D2/D3 dopamine receptors was roughly 2 nM.

For orientation: EC50 means the concentration needed to bring the measured effect to its halfway point. For `CN1CCC[C@H]1c1cccnc1` [nicotine, (-)-nicotine tartrate], the Rmax is 5.24 ± 0.24 units and 4.16 ± 0.06 units in data set [1]; 15.8 ± 0.5 units and 14.5 ± 0.5 units at (non-α6) α4β2* nAChRs; 4.6 ± 0.3 units and 3.2 ± 0.3 units in [3]; 3.83 ± 0.13 units and 3.63 ± 0.15 units in data set [5]; 7.8 ± 0.2 units and 7.4 ± 0.4 units in data set [6]. In data set [2], the “potency and efficacy for locomotor activation” value is on record as “consistently reduced”. Moreover, in data set [2] (ip, 0.2 mg/kg), the peak locomotor response is 93 ± 14 ambulations/min and 53 ± 4 ambulations/min. Besides, the “concentration in brain CSF” value in [4] was 100 to 500 nM. Moreover, in the data set on α6α4β2β3 nAChRs, the EC50 is 230 nM.

Regarding `NC1=N[C@H](O)[C@H]2[C@H]3O[C@]4(O)O[C@@H]([C@@H](O)[C@@]2(N1)[C@@H]4O)[C@]3(O)CO` [tetrodotoxin], the “effect on evoked DA release responses” value in data set [7] is “blocked”.
